Literature values in patent US9072314B2, “Carotenoid-containing compositions and methods” (Mead Johnson Nutrition Company, priority 2007, dated 2015).

Assays:
H. pylori strains = conditions: strains in Japanese children, cited study

CC1=C(/C=C/C(C)=C/C=C/C(C)=C/C=C/C=C(C)/C=C/C=C(C)/C=C/C2=C(C)C(=O)C(O)CC2(C)C)C(C)(C)CC(O)C1=O (stereo not shown) [Astaxanthin, astaxanthin]
antioxidant capacity relative to Vitamin E (versus Vitamin E): 100-500 times
antioxidant capacity relative to beta-carotene (versus beta-carotene): 10 times

CC[C@H]1OC(=O)[C@H](C)[C@@H](O[C@H]2C[C@@](C)(OC)[C@@H](O)[C@H](C)O2)[C@H](C)[C@@H](O[C@@H]2O[C@H](C)C[C@H](N(C)C)[C@H]2O)[C@](C)(OC)C[C@@H](C)C(=O)[C@H](C)[C@@H](O)[C@]1(C)O [clarithromycin]
H. pylori strains tested that were resistant (H. pylori strains): 29%

Cc1ncc([N+](=O)[O-])n1CCO [metronidazole]
H. pylori strains tested that were resistant (H. pylori strains): 24%
